Results reported in US9968609B2, “Sildenafil solutions and methods of making and using same” (Vigorous Solutions Ltd., priority 2014, dated 2018).
Counter-ions that a name gives are not always drawn.

Test: Spectrophotometric absorbance at 228 nm before and after 0.22 micron filtration (Example 12)
Format: physicochemical
Conditions: 70% ethanol in water, organic solvent or mixture; as prepared in Example 1, 70% ethanol; read-out: concentration at which fully soluble
Description: A UV-VIS Genesys 105 Thermo Scientific spectrophotometer was used for the assay. Samples were placed in a UV Kurette Halbmicro/UV Cuvette semi micro [Cat no: 759150] for reading.
Because the reference describes measurements at μg/ml concentrations, both the filtered and unfiltered 18 mg/ml solutions were diluted to 9 μg/ml and 12.5 μg/ml and measured again.

`CCCc1nn(C)c2c(=O)[nH]c(-c3cc(S(=O)(=O)N4CCN(C)CC4)ccc3OCC)nc12` [sildenafil citrate] gave a solubility at 10 min of 18 mg/mL.
